Experiments:
[1] = target: T1, FGFR3 (Homo sapiens, UniProt P22607); experiment: FGFR3 kinase activity inhibition assay (LanthaScreen TR-FRET); type: biochemical
T1 construct: FGFR3's cytoplasmic domain [436-806 (terminal) amino acids]; purchased Carna 08-135
Method in brief: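 Read-out is TR-FRET, with the 520 nm/495 nm emission ratio normalised to DMSO (max) and enzyme-free (min) controls. Enzyme was the FGFR3 cytoplasmic domain, residues 436-806. EDTA (10 mM) stopped the reaction, followed by 60 min at 22 °C before reading.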

[2] = system: RT112-FGFR3-V555M cells; experiment: Inhibition of proliferation activity of RT112-FGFR3-V555M cells (CellTiter-Glo); type: cell-based; conditions: RT112-FGFR3-V555M cells, 72 hours, CTG; read-out: IC50 (nM) RT112-FGFR3-V555M
Description: The present experiment used CellTiter-Glo® Luminescent Cell Viability Assay (Promega: G7573) kit, which was a homogeneous cell viability detection method and determined the cell viability of cultured cells by quantifying ATP. • ① RT112-FGFR3-V555M cells were cultured in MEM complete medium (Gibco: 51200038) (10% FBS (Gibco: 10091-148)+1% Pen Strep (Gibco: 15140122)+1% NEAA (Gibco: 11140050)) under the condition of 37°C and 5% CO2. • (2) The cells in logarithmic growth phase were harvested and counted using a […]. The trypan blue exclusion method was used to detect cell viability to ensure the cell viability was above 90%. • ③ The cell density was adjusted using MEM complete medium, and then, the cells were seeded into a 96-well cell culture plate at 90 µL/well with a total of 5000 cells. • ④ The 96-well plate with the cells was placed under the condition of 37°C and 5% CO2 to be cultured for 24 hours. • ⑤ 24 hours later, a 10-fold drug solution was prepared starting from a maximum drug concentration of 10 µM and 4-fold serially diluted into10 concentrations. Then, 10 µL of each of the serially diluted compounds was transferred to the corresponding experimental wells of a 96-well cell plate, with two replicates for each drug concentration. • ⑥ The 96-well plate with the cells that had been treated with the drugs was placed under the condition of 37°C and 5% CO2 to be further cultured for 72 hours, and then analyzed by CTG. • ⑦ The CTG reagent was melted and the cell plate was equilibrated to room temperature for 30 minutes. • ⑧ 50 µL of the CTG solution was added to each well. • ⑨ The cell plate was shaken on an orbital shaker for 5 minutes to lyse the cells. • ⑩ The cell plate was placed at room temperature for 20 minutes to stabilize the luminescence signal. The luminescence values were read to collect the data. • ⑪ The data were analyzed using XLFit excel plugin version 5.5.0.5, and fitted with non-linear S-curve regression to obtain the dose-response curves and thus calculate the IC50 values. Y = Bottom + (Top-Bottom)/((1+(IC50/X))^(∧) HillSlope [formula]
"Top" refers to the maximum response, "Bottom" refers to the minimum response, and "HillSlope" refers to the slope of the curve.
"Max" represents the average value of the cell+DMSO control, and "Min" represents the average value of the medium control+DMSO.

T1 sequence (P22607 436-806): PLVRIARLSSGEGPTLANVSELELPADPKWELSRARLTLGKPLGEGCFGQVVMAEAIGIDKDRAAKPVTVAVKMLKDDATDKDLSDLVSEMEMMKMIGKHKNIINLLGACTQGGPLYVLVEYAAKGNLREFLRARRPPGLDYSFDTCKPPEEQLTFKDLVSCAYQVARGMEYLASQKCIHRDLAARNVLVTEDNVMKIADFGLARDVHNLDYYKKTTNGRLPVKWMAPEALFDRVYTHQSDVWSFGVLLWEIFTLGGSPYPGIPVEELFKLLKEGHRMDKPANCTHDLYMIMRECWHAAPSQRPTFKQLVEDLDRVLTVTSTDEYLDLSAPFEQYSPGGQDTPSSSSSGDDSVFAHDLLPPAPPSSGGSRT

## [2H]C([2H])([2H])c1cc2nccnc2c(C(C)Oc2ccc3[nH]nc(-c4cnn(C)c4)c3c2)n1 (centres unmarked) [Example 241]
[1]
  IC50: < 1 nM
[1]; ratio of IC50 FGFR1/FGFR3, selectivity towards FGFR3
  Selectivity (X) FGFR1/FGFR3: B (B represents 20 ≤ multiple X<50)
[1]; ratio of IC50 FGFR2/FGFR3, selectivity towards FGFR3
  Selectivity (X) FGFR2/FGFR3: A (A represents 1 ≤ multiple X<20)
[1]; ratio of IC50 FGFR4/FGFR3, selectivity towards FGFR3
  Selectivity (X) FGFR4/FGFR3: A (A represents 1 ≤ multiple X<20)
[2]
  IC50: 18.2 nM

Source: patent EP4644383A1 (Jiangsu Yahong Meditech Co., Ltd., priority 2022, dated 2024)
